Laboratory results from publication PMC10096180, “Half-Sandwich Type Platinum-Group Metal Complexes of C-Glucosaminyl Azines: Synthesis and Antineoplastic and Antimicrobial Activities” (Molecules, 2023).
Where two headings read alike, the source gives them in different places. One block for each molecule: values may come before it.

Columns and labels:
[1] = test system: primary human dermal fibroblasts; assay: MTT reduction assay, early toxicity, 4 h treatment; format: cell-based; details: up to 100 μM
Outline: (§1)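 Cells plated the day before, exposed to compounds for 4 h, then MTT 0.5 mg/mL for 40–60 min at 37 °C; reduced dye dissolved in DMSO, read at 540 nm relative to vehicle wells. IC50 by four-parameter fit; otherwise % inhibition at 100 μM.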

A2780 cells [2] = assay: MTT reduction assay, early toxicity, 4 h treatment; format: cell-based
Outline: as §1

Capan2 cells = assay: SRB assay, 48 h; format: cell-based
Experimental: (§2) Figure 8 Assessment of free ligand 3a and complex Ru-3a for cytostatic activity in multiple carcinomas. […] Cells were treated with the compounds in the concentrations indicated for 48 h; then, an SRB assay was performed. Data are represented as average ± SD from three biological replicates; individual assays were performed in duplicates. Values were normalized for vehicle-treated cells; absorbance for vehicle-treated cells equals 1. Statistical significance was assessed using a one-way ANOVA test comparing all values to the lowest concentration of a compound. Before the test, normality was assessed using the Shapiro–Wilk test, and the post hoc test was chosen accordingly. […] An SRB assay measures protein content of cells in correlation with the cell number in an assay well and can therefore be used to assess cell proliferation or long-term cytostasis. Cells were seeded in 96-well plates the day before the assay. Cells were treated with the compounds for 48 h. Then medium was removed, and cells were fixed with 10% trichloroacetic acid. […] Stained cells were washed in 1% acetic acid 5 times; acetic acid was removed, and cells were left to dry. Protein-bound SRB was released by adding 100 μL 10 mM Tris base. Plates were measured in a plate photometer (Thermo Scientific Multiscan GO spectrophotometer, Waltham, MA, USA) at 540 nm. On each plate, wells were designed to contain vehicle-treated cells. […] Statistical analysis was performed using version 8.0.1 of GraphPad Prism. Values were tested for normal distribution using the Shapiro–Wilk normality test. […] In other cases, the percentage of inhibition was taken for the maximum concentration (100 μM).

MCF7 cells = assay: SRB assay, 48 h; format: cell-based
Experimental: as §2

U251 cells = assay: SRB assay, 48 h; format: cell-based
Experimental: as §2

ID8 cells = assay: SRB assay, 48 h; format: cell-based
Experimental: as §2

A2780 cells [3] = assay: SRB binding assay, cytostasis, 48 h treatment; format: cell-based; details: for A2780 SRB Max Inhibition: up to 100 μM, ND = not detectable
Outline: (§3)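 Ovarian cancer A2780 cells and primary human dermal fibroblasts treated 48 h, TCA-fixed, SRB-stained, absorbance at 540 nm relative to vehicle. IC50 from four-parameter fit when a plateau was reached or inhibition exceeded 90%; otherwise percent inhibition at 100 μM.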

[4] = test system: Staphylococcus aureus (ATCC29213); assay: Broth microdilution MIC, reference strain; format: cell-based; details: 0.08–40 μM, read-out: MIC S. aureus ATCC 29213
Outline: (§4)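 EUCAST broth microdilution in Mueller–Hinton broth, inoculum 5.0 × 10^5 CFU/mL, compounds at 0.08–40 μM (twofold dilutions), 24 h at 37 °C. Plates read visually; MIC taken as lowest concentration giving ≥50% inhibition versus drug-free growth control.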

[5] = test system: Enterococcus faecalis (ATCC29212); assay: Broth microdilution MIC, reference strain; format: cell-based; details: 24 h, tested range 0.08–40 μM, read-out: MIC E. faecalis ATCC 29,212
Outline: as §4

[6] = test system: vancomycin-resistant Enterococcus (VRE) clinical isolates; assay: Broth microdilution MIC, clinical VRE isolates; format: cell-based, E. faecium; details: 24 h, 0.08–40 μM
Outline: (§5)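 S. aureus and E. faecium clinical isolates (Debrecen, 2018–2020; MALDI-TOF-identified) tested by EUCAST broth microdilution in Mueller–Hinton broth at 5.0 × 10^5 CFU/mL across 0.08–40 μM (twofold). After 24 h at 37 °C, visually read; MIC is the lowest concentration giving ≥50% inhibition versus growth control. At least two runs in duplicate.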

[7] = test system: methicillin-resistant Staphylococcus aureus (MRSA) clinical isolates; assay: Broth microdilution MIC, clinical MRSA isolates; format: cell-based; details: 24 h, 0.08–40 μM
Outline: as §5

[8] = test system: Gram-positive multiresistant bacteria (Staphylococcus aureus, Enterococcus species); set-up: method as in PMID 35494644, PMID 36793764; details: Figure 1, Staphylococcus aureus; cited from earlier work
ID8 (ovarian) = test system: ID8 (ovarian); set-up: method as in PMID 36793764, PMID 34638791, PMID 35054999; details: Figure 1, complex Ia; cited from earlier work
Saos (sarcoma) = test system: Saos (sarcoma); set-up: method as in PMID 36793764, PMID 34638791, PMID 35054999; details: Figure 1, complex Ia; cited from earlier work
A2780 (ovarian) = details: Figure 1, complex Ia; read-out: IC50 A2780 (ovarian, cisplatin resistant); cited from earlier work
[9] = test system: Capan2 (pancreatic adenocarcinoma); set-up: method as in PMID 36793764, PMID 34638791, PMID 35054999; details: Figure 1, complex Ia; cited from earlier work
[10] = test system: primary human dermal fibroblasts; assay: SRB binding assay, cytostasis, 48 h treatment; format: cell-based; details: up to 100 μM, ND = not detectable
Outline: as §3

[11] = Distribution coefficient (logD), n-octanol-PBS; format: physicochemical; details: n-octanol-PBS (pH = 7.4) system
Experimental: The logD values of the newly synthesized complexes were determined according to a procedure described in our previous publications. page 64: Ir-7b +1.17 Rh-7b +1.41 Ru-7c +1.31 Os-7c +1.59 Ir-7c +1.40 Rh-7c +1.13 Ru-7d +1.26 Os-7d +1.42 Ir-7d +1.30 Rh-7d +1.04 Ru-7e +2.22 Os-7e +2.21 Ir-7e +1.39 Rh-7e +1.66 *logD was determined in an n-octanol-PBS (pH = 7.4) system 64 (14 pictures or pasted objects on this page, not shown here)

[12] = inhibition at maximum concentration (100 μM) where no plateau, ND = not detectable
[13] = clinical isolate 25,051 VRE, read-out: MIC 25,051 VRE
[14] = clinical isolate 25,498 VRE, read-out: MIC 25,498 VRE
[15] = clinical isolate 27,085 VRE, read-out: MIC 27,085 VRE
[16] = clinical isolate 20,426 MRSA, read-out: MIC 20,426 MRSA
[17] = clinical isolate 24,035 MRSA, read-out: MIC 24,035 MRSA
[18] = clinical isolate 24,268 MRSA, read-out: MIC 24,268 MRSA
[19] = clinical isolate 24,272 MRSA, read-out: MIC 24,272 MRSA
[20] = clinical isolate 24,328 MRSA, read-out: MIC 24,328 MRSA
[21] = clinical isolate 24,408 MRSA, read-out: MIC 24,408 MRSA

SMILES: Cc1ccc(C(C)C)cc1.F[P-](F)(F)(F)(F)F.O=C(OCC1OC(n2cc(-c3ccc4ccccc4n3)nn2)C(OC(=O)c2ccccc2)C(OC(=O)c2ccccc2)C1OC(=O)c1ccccc1)c1ccccc1.[Cl][Os+] (stereo not shown) [Ia]
MIC on Gram-positive multiresistant bacteria [8]: 5 to 20 µM | IC50 (ID8 (ovarian)): 0.36 µM | IC50 (Saos (sarcoma)): 1.29 µM | IC50 (A2780 (ovarian)): 0.43 µM | IC50 [9]: 1.35 µM

SMILES: Cc1ccc(C(C)C)cc1.F[P-](F)(F)(F)(F)F.N[C@@H]1[C@@H](OC(=O)c2ccccc2)[C@H](OC(=O)c2ccccc2)[C@@H](COC(=O)c2ccccc2)O[C@H]1c1ccccn1.[Cl][Ru+] [Ru-7a]
Fibroblast MTT Max Inhibition [1]: 65.18% | IC50 (A2780 cells [2]): 9.15 µM | A2780 MTT Max Inhibition (A2780 cells [2]; [12]): >90% | Fibroblast SRB Max Inhibition [10]: 56.31% | IC50 (A2780 cells [3]): 4.11 µM | A2780 SRB Max Inhibition (A2780 cells [3]): >90% | MIC ([4]; 24 h): 5 µM | MIC [5]: 5 µM | MIC [6, 13]: 5 µM | MIC [6, 14]: 5 µM | MIC [6, 15]: 5 µM | MIC [7, 16]: 5 µM | MIC [7, 17]: 5 µM | MIC [7, 18]: 5 µM | MIC [7, 19]: 5 µM | MIC [7, 20]: 5 µM | MIC [7, 21]: 5 µM | logD [11]: 1.15

Now from value to molecule, other results behind:

IC50 (A2780 cells [3]): 36.2 µM | IC50 (A2780 cells [3]; Homo sapiens, A2780, 48 h): > 30 µM | MIC ([4]; Staphylococcus aureus, ATCC29213, 24 h): > 40 µM | MIC ([5]; Enterococcus faecalis): > 40 µM | MIC ([6]; Enterococcus, clinical isolate 25,051 VRE, read-out: MIC 25,051 VRE): > 40 µM | MIC ([6]; Enterococcus, clinical isolate 25,498 VRE, read-out: MIC 25,498 VRE): > 40 µM | MIC ([6]; Enterococcus, clinical isolate 27,085 VRE, read-out: MIC 27,085 VRE): > 40 µM | MIC ([7]; Staphylococcus aureus, clinical isolate 20,426 MRSA, read-out: MIC 20,426 MRSA): > 40 µM | MIC ([7]; Staphylococcus aureus, clinical isolate 24,035 MRSA, read-out: MIC 24,035 MRSA): > 40 µM | MIC ([7]; Staphylococcus aureus, clinical isolate 24,268 MRSA, read-out: MIC 24,268 MRSA): > 40 µM | MIC ([7]; Staphylococcus aureus, clinical isolate 24,272 MRSA, read-out: MIC 24,272 MRSA): > 40 µM | MIC ([7]; Staphylococcus aureus, clinical isolate 24,328 MRSA, read-out: MIC 24,328 MRSA): > 40 µM | MIC ([7]; Staphylococcus aureus, clinical isolate 24,408 MRSA, read-out: MIC 24,408 MRSA): > 40 µM
SMILES: N[C@@H]1[C@@H](OCc2ccccc2)[C@H](OCc2ccccc2)[C@@H](COCc2ccccc2)O[C@H]1c1ccccn1 [Complex 3a, 2-(2′-Amino-2′-deoxy-3′,4′,6′-tri-O-benzyl-β-D-glucopyranosyl)pyridine]
Fibroblast MTT Max Inhibition [1]: 32.22% | inhibition at 100 µM (A2780 cells [2]; Homo sapiens, inhibition at maximum concentration (100 μM) where no plateau, ND = not detectable, read-out: A2780 MTT Max Inhibition): 70.2% | Capan2 SRB Max Inhibition (Capan2 cells): >90% | IC50 (Capan2 cells): 15 µM | IC50 (Capan2 cells; Homo sapiens, Capan-2, 48 h): 10 to 30 µM | MCF7 SRB Max Inhibition (MCF7 cells): >90% | U251 SRB Max Inhibition (U251 cells): >90% | IC50 (ID8 cells): 13.1 µM | ID8 SRB Max Inhibition (ID8 cells): >90% | IC50 (ID8 cells; Mus musculus, ID8, 48 h): 10 to 30 µM | A2780 SRB Max Inhibition (A2780 cells [3]): >90%

Fibroblast SRB Max Inhibition [10]: 49.00% | IC50 (A2780 cells [3]): 8.58 µM | MIC ([4]; 24 h): 10 µM | MIC [5]: 5 µM | MIC [6, 13]: 5 µM | MIC [6, 14]: 5 µM | MIC [6, 15]: 10 µM | MIC [7, 16]: 10 µM | MIC [7, 17]: 10 µM | MIC [7, 18]: 5 µM | MIC [7, 19]: 5 µM | MIC [7, 20]: 5 µM | MIC [7, 21]: 5 µM | logD [11]: 2.15
SMILES: Cc1ccc(C(C)C)cc1.F[P-](F)(F)(F)(F)F.N[C@@H]1[C@@H](OC(=O)c2ccccc2)[C@H](OC(=O)c2ccccc2)[C@@H](COC(=O)c2ccccc2)O[C@H]1c1ccccn1.[Cl][Os+] [Os-7a]
Fibroblast MTT Max Inhibition [1]: 65.18% | IC50 (A2780 cells [2]): 13.8 µM | A2780 MTT Max Inhibition (A2780 cells [2]; [12]): >90% | A2780 SRB Max Inhibition (A2780 cells [3]): >90%

Fibroblast SRB Max Inhibition [10]: 32.56% | IC50 (A2780 cells [3]): 18.2 µM | MIC ([4]; 24 h): >40 µM | MIC [5]: >40 µM | MIC [6, 13]: >40 µM | MIC [6, 14]: >40 µM | MIC [6, 15]: >40 µM | MIC [7, 16]: >40 µM | MIC [7, 17]: >40 µM | MIC [7, 18]: >40 µM | MIC [7, 19]: >40 µM | MIC [7, 20]: >40 µM | MIC [7, 21]: >40 µM | logD [11]: 1.20
SMILES: Cc1c(C)c(C)[c-](C)c1C.F[P-](F)(F)(F)(F)F.N[C@@H]1[C@@H](OC(=O)c2ccccc2)[C@H](OC(=O)c2ccccc2)[C@@H](COC(=O)c2ccccc2)O[C@H]1c1ccccn1.[Cl][Rh+2] [Rh-7a]
Fibroblast MTT Max Inhibition [1]: 27.02% | A2780 MTT Max Inhibition (A2780 cells [2]; [12]): 35.97% | A2780 SRB Max Inhibition (A2780 cells [3]): >90%
